Our source for the IC50 values is patent US10328077B2 (CELGENE CORPORATION, priority 2016, dated 2019).

The test system of test [1] is CD11b expression in THP-1 (AML) cells. The test is described as follows: LSD-1 CD11b cellular assay (flow cytometry). Conditions: Homo sapiens, THP-1, 96 h, read-out: THP-1 IC50. A general note: Flow cytometry measures light scatter and fluorescence of single cells or particles in a stream.
Description: To analyze LSD-1 inhibitor efficacy in cells, a CD11b flow cytometry assay was performed. […] LSD-1 test compounds were serially diluted in DMSO. The dilutions were added to each well accordingly to a final concentration of 0.2% DMSO. The cells were incubated at 37 degrees Celsius in 5% CO2 for 4 days. 250 μL of each well was transferred to a well in a 96 well round bottom plate. The plate was centrifuged at 1200 rpm at 4 degrees Celsius in a Beckman Coulter Alegra 6KR centrifuge for 5 minutes. The media was removed leaving the cells at the bottom of the wells. The cells were washed in 100 μL cold HBSS (Hank's Balanced Salt Solution) plus 2% BSA (Bovine Serum Albumin) solution and centrifuged at 1200 rpm at 4 degrees Celsius for 5 minutes. The wash was removed. […] The cells were centrifuged and washed two times in 100 μl HBSS plus 2% BSA. After the final spin the cells were resuspended in 100 μL HBSS plus 2% BSA containing 1 μg/mL DAPI (4′,6-diamidino-2-phenylindole). The cells were then analyzed by flow cytometry in a BD FACSAria machine. Cells were analyzed for CD11b expression. The percent of CD11b expressing cells for each inhibitor concentration was used to determine an IC50 curve for each compound analyzed.
In the next test the target is human LSD-1 (Homo sapiens (Human), UniProt O60341). Description: In vitro enzyme inhibition assay LSD-1 (TR-FRET). It is filed as biochemical. The conditions noted are these: TR-FRET, H3K4me1-biotin labeled peptide. An excerpt: This assay determines the ability of a test compound to inhibit LSD-1 demethylase activity.
The enzymatic assay of LSD-1 activity is based on Time Resolved-Fluorescence Resonance Energy Transfer (TR-FRET) detection.
In general terms: Time-resolved FRET reads energy transfer from a long-lived donor to a nearby acceptor.

Take `CN(C)c1ccc(-c2c(-c3ccc(C#N)cc3)nc(N3CCCNCC3)n(C)c2=O)cn1` [Example 67, 4-[2-[1,4]diazepan-1-yl-5-(6-dimethylamino-pyridin-3-yl)-1-methyl-6-oxo-1,6-dihydro-pyrimidin-4-yl]-benzonitrile]: the IC50 (in test [1]; on human LSD-1) was less than 100 nM each time.

Take `CN(C)C1CCN(c2nc(-c3ccc(C#N)c(F)c3)c(-c3ccc4c(cnn4C)c3)c(=O)n2C)CC1` [Example 72, 4-[2-(4-dimethylamino-piperidin-1-yl)-1-methyl-5-(1-methyl-1H-indazol-5-yl)-6-oxo-1,6-dihydro-pyrimidin-4-yl]-2-fluoro-benzonitrile]: the IC50 (in test [1]; against human LSD-1) was less than 100 nM each time.

With `COc1ccc(-c2c(-c3ccc(C#N)c(F)c3)nc(N(C)C[C@H]3CCNC3)n(C)c2=O)cc1` [Example 54, 2-fluoro-4-[5-(4-methoxy-phenyl)-1-methyl-2-(methyl-(3S)-pyrrolidin-3-ylmethyl-amino)-6-oxo-1,6-dihydro-pyrimidin-4-yl]-benzonitrile], the 50% inhibitory concentration (IC50) (in test [1]; against human LSD-1) was less than 100 nM each time.

For `CN(C)C1CCN(c2nc(-c3ccc(C#N)c(F)c3)c(-c3ccc4cn(C)nc4c3)c(=O)n2C)CC1` [Example 80, 4-[2-(4-dimethylamino-piperidin-1-yl)-1-methyl-5-(2-methyl-2H-indazol-6-yl)-6-oxo-1,6-dihydro-pyrimidin-4-yl]-2-fluoro-benzonitrile], the concentration for half-maximal inhibition (IC50) (in test [1]; at human LSD-1) was less than 100 nM throughout.

Take `COCc1ccc(-c2c(-c3ccc(C#N)c(F)c3)nc(N3CCC(N)CC3)n(C)c2=O)cc1` [Example 107, 4-[2-(4-aminopiperidin-1-yl)-5-[4-(methoxymethyl)phenyl]-1-methyl-6-oxopyrimidin-4-yl]-2-fluorobenzonitrile]: the IC50 (in test [1]; at human LSD-1) was less than 100 nM each time.

For `CCOc1ncc(-c2c(-c3ccc(C#N)c(F)c3)nc(N3CCC(N)CC3)n(C)c2=O)cc1F` [Example 93, 4-[2-(4-aminopiperidin-1-yl)-5-(6-ethoxy-5-fluoropyridin-3-yl)-1-methyl-6-oxopyrimidin-4-yl]-2-fluorobenzonitrile], the 50% inhibitory concentration (IC50) (in test [1]; at human LSD-1) was less than 100 nM in each case.

In the case of `Cn1c(N2CCC(N)CC2)nc(-c2ccc(C#N)cc2)c(-c2ccc(C(N)=O)c(F)c2)c1=O` [Example 41, 4-[2-(4-aminopiperidyl)-6-(4-cyanophenyl)-3-methyl-4-oxo(3-hydropyrimidin-5-yl)]-2-fluorobenzamide], the results for the IC50 (in test [1]; on human LSD-1) were 100 to 1000 nM and less than 100 nM, respectively.

On to `CNc1ccc(-c2c(-c3ccc(C#N)c(F)c3)nc(N3CCC(N)CC3)n(C)c2=O)cc1F` [Example 91, 4-[2-(4-aminopiperidin-1-yl)-5-[3-fluoro-4-(methylamino)phenyl]-1-methyl-6-oxopyrimidin-4-yl]-2-fluorobenzonitrile], for which the IC50 (in test [1]; against human LSD-1) was less than 100 nM each time.

As for `CNC1CCN(c2nc(-c3ccc(C#N)c(F)c3)c(-c3ccc(OC)c(F)c3)c(=O)n2C)CC1` [Example 12, 2-fluoro-4-[5-(3-fluoro-4-methoxy-phenyl)-1-methyl-2-(4-methylamino-piperidin-1-yl)-6-oxo-1,6-dihydro-pyrimidin-4-yl]-benzonitrile], the half-inhibitory concentration (IC50) (in test [1]; against human LSD-1) was less than 100 nM in each case.

In the case of `Cn1c(N2CCC(N)CC2)nc(-c2ccc(C#N)c(F)c2)c(-c2ccc(F)c(F)c2)c1=O` [Example 104, 4-[2-(4-aminopiperidin-1-yl)-5-(3,4-difluorophenyl)-1-methyl-6-oxopyrimidin-4-yl]-2-fluorobenzonitrile], the IC50 (in test [1]; against human LSD-1) was less than 100 nM in each case.

In the case of `CCOc1ccc(-c2c(-c3ccc(C#N)c(F)c3)nc(N3CCC(N)CC3)n(C)c2=O)cc1` [Example 95, 4-[2-(4-aminopiperidin-1-yl)-5-(4-ethoxyphenyl)-1-methyl-6-oxopyrimidin-4-yl]-2-fluorobenzonitrile], the IC50 (in test [1]; against human LSD-1) was less than 100 nM in each case.

Regarding `CNc1ccc(-c2c(-c3ccc(C#N)c(F)c3)nc(N3CCC(N)CC3)n(C)c2=O)cc1` [Example 90, 4-[2-(4-aminopiperidin-1-yl)-1-methyl-5-[4-(methylamino)phenyl]-6-oxopyrimidin-4-yl]-2-fluorobenzonitrile], the IC50 (in test [1]; on human LSD-1) was less than 100 nM in each case.

As to `COc1ccc(-c2c(-c3ccc(C#N)c(F)c3)nc(NC[C@@H]3CCNC3)n(C)c2=O)cc1` [Example 52, 2-fluoro-4-{5-(4-methoxy-phenyl)-1-methyl-6-oxo-2-[(3R)-(pyrrolidin-3-ylmethyl)-amino]-1,6-dihydro-pyrimidin-4-yl}-benzonitrile], the results for the IC50 (in test [1]; against human LSD-1) were 100 to 1000 nM and less than 100 nM, respectively.

Turning to `Cn1c(N2CCC(N)CC2)nc(-c2ccc(C#N)c(F)c2)c(-c2ccc(N)cc2)c1=O` [Example 89, 4-[5-(4-aminophenyl)-2-(4-aminopiperidin-1-yl)-1-methyl-6-oxopyrimidin-4-yl]-2-fluorobenzonitrile], the IC50 (in test [1]; against human LSD-1) was less than 100 nM throughout.

With `Cn1c(N2CCC(N)CC2)nc(-c2ccc(C#N)c(F)c2)c(-c2ccc(OCCO)cc2)c1=O` [Example 96, 4-[2-(4-aminopiperidin-1-yl)-5-[4-(2-hydroxyethoxy)phenyl]-1-methyl-6-oxopyrimidin-4-yl]-2-fluorobenzonitrile], the IC50 (in test [1]; at human LSD-1) was less than 100 nM each time.

In the case of `COc1ccc(-c2c(-c3ccc(C#N)c(F)c3)nc(N3CCC(N)CC3)n(CC(N)=O)c2=O)cc1` [Example 16, 2-[2-(4-amino-piperidin-1-yl)-4-(4-cyano-3-fluoro-phenyl)-5-(4-methoxy-phenyl)-6-oxo-6H-pyrimidin-1-yl]-acetamide], the IC50 (in test [1]; at human LSD-1) was less than 100 nM each time.

As for `Cn1c(N2CCC(N)CC2)nc(-c2ccc(C#N)c(F)c2)c(-c2cccc(F)c2)c1=O` [Example 102, 4-[2-(4-aminopiperidin-1-yl)-5-(3-fluorophenyl)-1-methyl-6-oxopyrimidin-4-yl]-2-fluorobenzonitrile], the IC50 (in test [1]; against human LSD-1) was less than 100 nM each time.

With `Cn1c(N2CCC(N)CC2)nc(-c2ccc(C#N)c(F)c2)c(-c2ccc(CCO)cc2)c1=O` [Example 99, 4-[2-(4-aminopiperidin-1-yl)-5-[4-(2-hydroxyethyl)phenyl]-1-methyl-6-oxopyrimidin-4-yl]-2-fluorobenzonitrile], the IC50 (in test [1]; against human LSD-1) was less than 100 nM throughout.

As for `COc1ccc(-c2c(-c3ccc(C#N)c(F)c3)nc(N3CCC[C@@H](N)C3)n(C)c2=O)cc1F` [Example 25, 4-[2-((3R)-3-aminopiperidyl)-5-(3-fluoro-4-methoxyphenyl)-1-methyl-6-oxohydropyrimidin-4-yl]-2-fluorobenzenecarbonitrile], the IC50 (in test [1]; against human LSD-1) was less than 100 nM each time.

On to `Cn1cc2cc(-c3c(-c4ccc(C#N)c(F)c4)nc(N4CCC(N)CC4)n(C)c3=O)ccc2n1` [Example 37, 4-[2-(4-aminopiperidyl)-1-methyl-5-(2-methyl(2H-indazol-5-yl))-6-oxohydropyrimidin-4-yl]-2-fluorobenzenecarbonitrile], for which the IC50 (in test [1]; at human LSD-1) was less than 100 nM throughout.

For orientation: IC50 means the concentration that inhibits the measured activity by half.
